# Source: patent US8293764B2, “Compositions and methods for disruption of BRCA2-Rad51 interaction” (The Regents of the University of California, priority 2004, dated 2012)
# Legend:
# CAPAN-1 = assay: Sensitivity of BRCA2-truncated pancreatic cancer cell line; assay type: cell-based; conditions: preliminary results
# Description: The absence of BRCA2 in cells also appears to have a significant impact on Rad51 stability rendering them much more sensitive to IBR2 treatment. […] It is therefore contemplated that IBR2 may be particularly useful in treating cancer cells lacking functional BRCA2 (or having a reduced BRCA2 expression) albeit only a small fraction of cancer.
# MCF-7 cells = assay: Cell cycle analysis by flow cytometry (FACS); assay type: cell-based; conditions: 20 μM IBR2, time-dependent
# Description: To explore the mechanism of how IBR2 inhibits cancer cell growth, the inventors analyzed cell cycle progression of IBR2 treated MCF-7 cells by flow cytometry (FACS).
# Cell cycle analysis by flow cytometry: To analyze cell cycle distribution, […] MCF-7 cells were seeded in 10-cm dishes for 24 hours and treated with […] IBR2 for various times. Cells were then trypsinized and fixed with 70% ethanol (−20° C.) and stained for 30 minutes with propidium iodide (PI) staining solution (Yun et al., 2005) (50 μg/ml PI, 0.1% sodium citrate, 50 μg/ml RNase A, 0.03% NP-40 in PBS). Flow cytometry analysis was performed using a FACScalibur flow cytometer and cell cycle distribution was analyzed with CellQuest software (Beckton Dickison). 10,000 events were analyzed for each sample and the experiment was repeated twice.
# Rad51-BRC repeat complex = target: T1, Rad51-BRC repeat complex (Homo sapiens, UniProt Q06609); assay: SPR solution competition assay; assay type: binding; conditions: SPR solution competition format; read-out: median inhibitory concentration (IC50), displacement of BRC repeat from complex with Rad51
# T1 sequence (Q06609 1-339): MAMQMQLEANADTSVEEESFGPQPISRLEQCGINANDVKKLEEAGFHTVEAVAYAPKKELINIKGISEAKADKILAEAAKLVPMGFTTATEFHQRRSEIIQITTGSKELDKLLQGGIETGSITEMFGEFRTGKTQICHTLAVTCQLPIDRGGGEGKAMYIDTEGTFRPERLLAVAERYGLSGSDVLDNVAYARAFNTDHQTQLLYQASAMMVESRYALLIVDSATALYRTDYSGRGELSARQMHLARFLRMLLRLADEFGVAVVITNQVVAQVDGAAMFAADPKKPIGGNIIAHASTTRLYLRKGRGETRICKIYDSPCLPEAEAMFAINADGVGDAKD
# Description: If the IBR compound indeed occupies the hydrophobic pocket for the entrance of Phe1524 in BRCA2, the oligomerization of Rad51 should also be affected since they share the same binding region. […] Therefore, if IBR2 mimics the BRC hairpin structure, the Rad51 multimerization will also be inhibited by IBR2. We compared the gel filtration profile of Rad51 between with and without IBR2. […] The inhibition of the Rad51 and BRC repeat binding was further analyzed by SPR technology in a solution competition format as previously described (see e.g., Science 303, 844-848).
# Surface Plasmon Resonance binding assays: The assays were performed at 25° C. in HBSD buffer (10 mM HEPES, 150 mM NaCl, 0.1% DMSO) on Biacore3000 (Biacore Inc.). Sensor chips NTA or glutathione-modified CM5 were used to capture His-Rad51 or GST-BRC1, respectively. The capture level was about 130 resonance units at a flow rate of 5 μl/min. For sequential binding assays, chips were treated with compounds (1 μM) and then proteins (50 μg/ml). The retained resonance units (RU) were recorded and averaged from triplicate experiments. For competition assays (Vassilev et al., 2004), IBR2 was incubated with 50 μg/ml BRC at 25° C. for 15 minutes prior to use. Relative binding percentages were calculated with respect to the binding without IBR2 and averaged from two independent experiments.
# [1] = test system: human breast cancer xenograft (MDA-MB-468); assay: Tumor inhibition assay in nude mice; assay type: in vivo
# Description: To test the inhibitory effect of IBR2 on the growth of established tumor xenografts in nude mice, we chose the human breast cancer cell line MDA-MB-468 for this study. Mice with tumor size of approximately 85 mm3 were treated with three doses of IBR2 (10, 50 and 150 mg/kg i.p.) every other day for up to five weeks.
# Tumor inhibition assay in nude mice: 5×10^6 MDA-MB-468 cells in 100 μl of PBS were injected into mammary fat pad of 6-8 week old athymic female BALB/c-nude mice (nu/nu) (Charles River Laboratories). After tumors grew to 85 mm^3 (day 12), mice were randomized into four groups (n=5 per group) to receive intraperitoneal injection of IBR2 (10, 50, or 150 mg/kg) or vehicle (15% DMSO, 20% Tween 20, 10% PEG400, 55% saline) every other day for 5 weeks. Body weights of mice and tumor volumes were measured twice weekly during the course of drug treatment. A Student's t test was used to determine P value.
# [2] = test system: BRCA2-/-:p53-/-, BRCA1-/-:p53-/- and p53-/- MEFs; assay: Sensitivity of isogenic MEFs to IBR2; assay type: cell-based; conditions: compared with BRCA1-/-:p53-/- and p53-/- MEFs
# Description: Next, the inventors examined the sensitivity to IBR2 treatment of isogenic MEFs with genotypes of BRCA2−/−:p53−/−, BRCA1−/−:p53−/− and p53−/−.
smiles,measurement,setting,value
"O=S(=O)(Cc1ccccc1)N1C=Cc2ccccc2C1c1c[nH]c2ccccc12 (stereo not shown) [IBR2, 2-(benzylsulfonyl)-1-(1H-indol-3-yl)-1,2-dihydroisoquinoline]",sensitivity of CAPAN-1 to IBR2,CAPAN-1,significant sensitivity
same,G1 fraction,MCF-7 cells,increased
same,S and G2/M fractions,MCF-7 cells,depleted
same,sub-G1 fraction (apoptotic cells),MCF-7 cells,significantly increased
same,IC50,Rad51-BRC repeat complex,~0.115 µM
same,average body weights of nude mice,"[1]; 10, 50 and 150 mg/kg i.p.",remained almost constant
same,toxicity to animals,"[1]; 10, 50 and 150 mg/kg i.p.",without apparent toxicity to animals
same,retardation of tumor growth,"[1]; 10, 50 and 150 mg/kg i.p. every other day up to five weeks, vs vehicle",up to 65%
same,tumorigenicity in nude mice,"[1]; mouse, in vivo",significantly reduced tumorigenicity in nude mice
same,sensitivity of BRCA2-/-:p53-/- MEFs to IBR2,[2],most sensitive
